Test results reported in patent US20220153751A1, “BIFUNCTIONAL COMPOUNDS” (BioTheryX, Inc., priority 2018, published 2022).

Key:
Assay type in all cases: cell-based
IKAROS = molecular target: T1, IKAROS (Homo sapiens, UniProt Q13422+Q96SW2); assay: IKAROS degradation assay (Western blot, MV-4-11 cells); conditions: MV4-11, 6-8 h
T1 construct: endogenous in cells; host or cells: MV-4-11
Summary of the method: (§1)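 Western blot, infrared fluorescence read-out: % degradation versus DMSO after 6-8 h compound treatment of ~10^6 cells/mL. RIPA whole-cell lysates on 4-12% gels, nitrocellulose transfer. Binned A <25%, B 25–<50%, C 50–<75%, D ≥75%.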

CK1α = molecular target: T2, CK1α (Homo sapiens, UniProt P48729+Q96SW2); assay: CK1α degradation assay (Western blot, MV-4-11 cells); conditions: MV4-11, 6-8 h
T2 construct: Whole cell extracts were prepared using RIPA buffer; endogenous in cells; host or cells: MV-4-11
T2 sequence (P48729 whole entry): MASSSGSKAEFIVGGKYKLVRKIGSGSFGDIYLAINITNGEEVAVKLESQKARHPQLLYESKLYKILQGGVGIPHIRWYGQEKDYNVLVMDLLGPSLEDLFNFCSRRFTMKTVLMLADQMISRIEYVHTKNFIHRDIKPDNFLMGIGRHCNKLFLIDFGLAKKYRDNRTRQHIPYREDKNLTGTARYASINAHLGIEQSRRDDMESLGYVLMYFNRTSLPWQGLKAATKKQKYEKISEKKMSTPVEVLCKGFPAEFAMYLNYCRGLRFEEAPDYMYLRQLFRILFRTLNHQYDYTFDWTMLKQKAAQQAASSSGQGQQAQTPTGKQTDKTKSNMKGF
T2 sequence (Q96SW2 whole entry): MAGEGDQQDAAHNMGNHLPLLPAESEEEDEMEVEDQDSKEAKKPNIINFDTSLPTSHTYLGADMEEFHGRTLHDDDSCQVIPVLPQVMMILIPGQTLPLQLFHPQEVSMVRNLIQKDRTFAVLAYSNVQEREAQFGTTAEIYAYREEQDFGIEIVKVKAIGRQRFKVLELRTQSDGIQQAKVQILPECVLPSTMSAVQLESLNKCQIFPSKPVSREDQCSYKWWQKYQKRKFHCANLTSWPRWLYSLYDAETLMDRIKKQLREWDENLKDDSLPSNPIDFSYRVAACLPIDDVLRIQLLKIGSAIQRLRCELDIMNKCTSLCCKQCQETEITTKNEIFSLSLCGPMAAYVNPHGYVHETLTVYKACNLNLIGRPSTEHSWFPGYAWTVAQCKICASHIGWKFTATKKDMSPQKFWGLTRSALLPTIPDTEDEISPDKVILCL
T2 sequence (Q16531 whole entry partner): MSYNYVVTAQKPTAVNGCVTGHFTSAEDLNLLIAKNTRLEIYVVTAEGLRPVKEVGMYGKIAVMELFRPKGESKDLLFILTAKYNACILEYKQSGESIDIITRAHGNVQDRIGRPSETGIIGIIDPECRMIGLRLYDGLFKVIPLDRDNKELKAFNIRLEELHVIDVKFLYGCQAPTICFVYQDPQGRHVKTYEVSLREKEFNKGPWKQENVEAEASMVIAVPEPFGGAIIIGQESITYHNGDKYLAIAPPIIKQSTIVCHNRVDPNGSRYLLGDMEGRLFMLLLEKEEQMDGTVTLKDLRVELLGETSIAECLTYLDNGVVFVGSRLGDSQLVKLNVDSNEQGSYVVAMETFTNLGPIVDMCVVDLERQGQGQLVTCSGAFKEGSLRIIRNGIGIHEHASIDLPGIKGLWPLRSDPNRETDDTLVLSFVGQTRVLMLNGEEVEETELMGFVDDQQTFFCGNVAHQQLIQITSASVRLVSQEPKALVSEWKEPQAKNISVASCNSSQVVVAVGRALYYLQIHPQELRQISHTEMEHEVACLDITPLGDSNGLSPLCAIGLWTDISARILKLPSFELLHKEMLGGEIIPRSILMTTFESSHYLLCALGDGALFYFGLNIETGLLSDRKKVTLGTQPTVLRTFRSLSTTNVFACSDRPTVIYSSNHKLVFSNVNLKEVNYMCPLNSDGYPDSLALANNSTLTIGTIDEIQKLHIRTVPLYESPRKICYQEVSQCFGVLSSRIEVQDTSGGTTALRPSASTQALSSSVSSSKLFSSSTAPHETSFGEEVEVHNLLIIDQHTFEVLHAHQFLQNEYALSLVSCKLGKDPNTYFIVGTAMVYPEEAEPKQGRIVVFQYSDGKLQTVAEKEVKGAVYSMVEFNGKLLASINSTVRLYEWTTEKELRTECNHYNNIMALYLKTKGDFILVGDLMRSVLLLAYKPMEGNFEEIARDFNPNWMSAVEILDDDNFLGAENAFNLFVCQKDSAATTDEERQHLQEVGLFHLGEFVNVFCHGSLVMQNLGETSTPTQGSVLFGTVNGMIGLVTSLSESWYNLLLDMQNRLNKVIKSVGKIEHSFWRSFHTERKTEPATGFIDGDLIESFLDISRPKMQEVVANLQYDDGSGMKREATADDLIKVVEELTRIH
Summary of the method: as §1

GSPT1 = molecular target: T3, GSPT1 (Homo sapiens, UniProt P15170+Q96SW2); assay: GSPT1 degradation assay (Western blot, MV-4-11 cells); conditions: MV4-11, 6-8 h
T3 construct: Whole cell extracts were prepared using RIPA buffer; endogenous in cells; host or cells: MV-4-11
T3 sequence (P15170 whole entry): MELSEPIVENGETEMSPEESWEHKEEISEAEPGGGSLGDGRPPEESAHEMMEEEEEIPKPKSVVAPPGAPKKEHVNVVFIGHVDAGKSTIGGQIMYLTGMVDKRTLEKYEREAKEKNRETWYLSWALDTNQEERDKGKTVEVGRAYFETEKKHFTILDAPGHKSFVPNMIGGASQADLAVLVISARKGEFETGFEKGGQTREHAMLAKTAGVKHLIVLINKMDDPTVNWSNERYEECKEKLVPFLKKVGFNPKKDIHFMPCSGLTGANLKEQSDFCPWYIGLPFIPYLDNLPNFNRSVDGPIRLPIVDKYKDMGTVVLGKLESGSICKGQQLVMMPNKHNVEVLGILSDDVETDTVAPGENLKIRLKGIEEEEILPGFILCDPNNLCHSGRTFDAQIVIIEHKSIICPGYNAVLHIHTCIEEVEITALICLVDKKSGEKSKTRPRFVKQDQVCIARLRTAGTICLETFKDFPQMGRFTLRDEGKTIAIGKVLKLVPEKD
T3 sequence (Q96SW2 whole entry): as the sequence (Q96SW2 whole entry) above
T3 sequence (Q16531 whole entry partner): as the sequence (Q16531 whole entry partner) above
Summary of the method: as §1

CDK9 = molecular target: T4, CDK9 (Homo sapiens, UniProt P50750); assay: CDK9 degradation assay (Western blot, MV-4-11 cells); conditions: 6-8 h; for Dmax at 0.1 µM: MV4-11, 0.1 μM; for Dmax at 1 µM: MV4-11, 1 μM
T4 construct: Whole cell extracts were prepared using RIPA buffer; endogenous in cells; host or cells: MV-4-11
T4 sequence (P50750 whole entry): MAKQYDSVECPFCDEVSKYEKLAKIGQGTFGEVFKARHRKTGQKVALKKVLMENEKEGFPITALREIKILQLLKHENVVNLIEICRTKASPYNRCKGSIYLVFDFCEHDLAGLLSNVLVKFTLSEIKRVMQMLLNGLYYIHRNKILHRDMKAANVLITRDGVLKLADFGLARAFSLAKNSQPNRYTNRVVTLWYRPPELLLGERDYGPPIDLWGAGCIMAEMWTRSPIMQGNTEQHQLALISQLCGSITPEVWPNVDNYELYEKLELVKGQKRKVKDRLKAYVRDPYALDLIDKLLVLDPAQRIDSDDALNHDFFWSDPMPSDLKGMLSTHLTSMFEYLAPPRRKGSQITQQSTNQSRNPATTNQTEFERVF
Summary of the method: as §1

CDK16 = molecular target: T5, CDK16 (Homo sapiens, UniProt Q00536); assay: CDK16 degradation assay (Western blot, MV-4-11 cells); conditions: 6-8 h; for Dmax at 0.1 µM: MV4-11, 0.1 μM; for Dmax at 1 µM: MV4-11, 1 μM
T5 construct: Whole cell extracts were prepared using RIPA buffer; endogenous in cells; host or cells: MV-4-11
T5 sequence (Q00536 whole entry): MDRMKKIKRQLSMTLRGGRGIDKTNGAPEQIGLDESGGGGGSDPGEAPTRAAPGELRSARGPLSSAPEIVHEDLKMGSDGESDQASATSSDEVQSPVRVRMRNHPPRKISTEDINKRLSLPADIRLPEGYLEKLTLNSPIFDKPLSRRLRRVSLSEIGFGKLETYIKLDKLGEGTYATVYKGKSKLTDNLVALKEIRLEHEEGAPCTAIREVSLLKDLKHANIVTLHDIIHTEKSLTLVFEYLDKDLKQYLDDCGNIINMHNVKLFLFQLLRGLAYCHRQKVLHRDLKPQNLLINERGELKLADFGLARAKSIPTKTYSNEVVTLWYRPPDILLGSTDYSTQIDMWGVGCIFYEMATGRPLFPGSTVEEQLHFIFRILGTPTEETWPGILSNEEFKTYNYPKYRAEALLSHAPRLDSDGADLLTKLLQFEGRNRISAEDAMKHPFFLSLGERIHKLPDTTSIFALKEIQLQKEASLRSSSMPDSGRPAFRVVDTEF
Summary of the method: as §1

IL-1β = IL-1β inhibition assay, LPS-induced PBMCs / CD14+ monocytes (Meso Scale); conditions: 1 h pretreatment, 100 ng/mL LPS 18-24 h
Summary of the method: (§2)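 Thawed human PBMCs or CD14+ mobilized peripheral blood monocytes, 200,000 cells/well in RPMI-1640/10% FBS, pretreated with compound or DMSO 1 h, then stimulated with 100 ng/mL LPS for 18-24 h. Supernatant cytokine measured by Meso Scale; % inhibition binned A–D (<50%, 50–70%, 70–90%, ≥90%), fold-change binned A–D (≤0.1, ≤0.5, ≤1, >1).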

IL-6 = IL-6 inhibition assay, LPS-induced PBMCs / CD14+ monocytes (Meso Scale); conditions: 1 h pretreatment, 100 ng/mL LPS 18-24 h
Summary of the method: as §2

TNF-α = TNF-α inhibition assay, LPS-induced PBMCs / CD14+ monocytes (Meso Scale); conditions: 1 h pretreatment, 100 ng/mL LPS 18-24 h
Summary of the method: as §2

IL-2 = IL-2 fold-change assay, anti-CD3 stimulated PBMCs (Mesoscale); conditions: PBMC, PBMCs on anti-human CD3, 24 h, fold difference from the DMSO control
Summary of the method: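 PBMCs (3-4 million cells/mL) stimulated on plates precoated with 1 μg/mL anti-human CD3 antibody, with compound, for 24 h. Supernatant IL-2 measured by Mesoscale. Result expressed as fold difference from DMSO control and reported in bins.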

MOLM-13 cells = assay: MOLM-13 cell viability assay (CellTiter-Glo); conditions: Homo sapiens, MOLM-13, 72 h, 3 days, read-out: MOLM-13 Cell Viability % DMSO at 1 μM
Summary of the method: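 MOLM-13 cells at 2500 cells/well were exposed to compound for 3 days at 37 °C. Viability was read by CellTiter-Glo luminescence and expressed as % of DMSO control, binned A (<50%), B (50–<70%), C (70–<90%) or D (≥90%).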

T1 sequence (Q13422 whole entry): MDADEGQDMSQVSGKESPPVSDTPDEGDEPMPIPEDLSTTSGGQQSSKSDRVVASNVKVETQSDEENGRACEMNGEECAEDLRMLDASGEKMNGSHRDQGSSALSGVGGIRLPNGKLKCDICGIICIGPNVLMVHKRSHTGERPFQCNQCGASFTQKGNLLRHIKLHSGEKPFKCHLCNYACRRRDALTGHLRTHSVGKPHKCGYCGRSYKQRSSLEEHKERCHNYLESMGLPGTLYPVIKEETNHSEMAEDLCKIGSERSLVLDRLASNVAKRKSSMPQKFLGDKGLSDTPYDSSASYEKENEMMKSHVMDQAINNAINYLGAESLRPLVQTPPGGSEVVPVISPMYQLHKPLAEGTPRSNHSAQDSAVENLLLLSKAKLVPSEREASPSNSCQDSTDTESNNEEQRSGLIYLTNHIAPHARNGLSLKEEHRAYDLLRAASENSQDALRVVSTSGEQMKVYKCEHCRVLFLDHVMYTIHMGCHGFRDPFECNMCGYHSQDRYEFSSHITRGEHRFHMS
T1 sequence (Q96SW2 whole entry): as the sequence (Q96SW2 whole entry) above
T1 sequence (Q16531 whole entry partner): as the sequence (Q16531 whole entry partner) above

Row | Compound | Dmax at 1 µM (IKAROS) [%] | Dmax at 1 µM (CK1α) [%] | Dmax at 1 µM (GSPT1) [%] | Dmax at 0.1 µM (CDK9) [%] | Dmax at 1 µM (CDK9) [%] | Dmax at 0.1 µM (CDK16) [%] | Dmax at 1 µM (CDK16) [%] | inhibition at 1 µM (IL-1β) [%] | inhibition at 1 µM (IL-6) [%] | inhibition at 1 µM (TNF-α) [%] | fold induction at 1 µM (IL-2) | viability at 1 µM (MOLM-13 cells) [%]
1 | CC(C)(C)c1cnc(CSc2cnc(NC(=O)C3CCN(CC(=O)NCCOCCOCCNCC(=O)NCc4cc5c(s4)C(=O)N(C4CCC(=O)NC4=O)C5)CC3)s2)o1 (stereo not shown) [Compound 34, N-(5-(((5-(tert-butyl)oxazol-2-yl)methyl)thio)thiazol-2-yl)-1-(1-(5-(2,6-dioxopiperidin-3-yl)-6-oxo-5,6-dihydro-4H-thieno[2,3-c]pyrrol-2-yl)-3,15-dioxo-8,11-dioxa-2,5,14-triazahexadecan-16-yl)piperidine-4-carboxamide] | 50 to 75 | 25 to 50 | 50 to 75 | < 25 | ≥ 75 | 25 to 50 | < 25 | 70 to 90 | 70 to 90 | 70 to 90 | ≤ 0.1 | > 90
2 | CC(C)(C)c1cnc(CSc2cnc(NC(=O)C3CCN(CC(=O)NCCOCCOCCOCCNCC(=O)NCc4scc5c4CN(C4CCC(=O)NC4=O)C5=O)CC3)s2)o1 (stereo not shown) [Compound 41, N-(5-(((5-(tert-butyl)oxazol-2-yl)methyl)thio)thiazol-2-yl)-1-(1-(5-(2,6-dioxopiperidin-3-yl)-4-oxo-5,6-dihydro-4H-thieno[3,4-c]pyrrol-1-yl)-3,18-dioxo-8,11,14-trioxa-2,5,17-triazanonadecan-19-yl)piperidine-4-carboxamide] | 50 to 75 | 50 to 75 | ≥ 75 | 50 to 75 | ≥ 75 | < 25 | < 25 | > 90 | > 90 | 70 to 90 | 0.1 to 0.5 | 70 to 90
3 | Cn1ncc(-c2nc(N[C@H]3CC[C@H](NCC(=O)NCCOCCOCCOCCNc4cccc5c4CN(C4CCC(=O)NC4=O)C5=O)CC3)ncc2Cl)c1CC1CC1 (stereo partly shown) [Compound 55, 2-(((1r,4r)-4-((5-chloro-4-(5-(cyclopropylmethyl)-1-methyl-1H-pyrazol-4-yl)pyrimidin-2-yl)amino)cyclohexyl)amino)-N-(2-(2-(2-(2-((2-(2,6-dioxopiperidin-3-yl)-1-oxoisoindolin-4-yl)amino)ethoxy)ethoxy)ethoxy)ethyl)acetamide] | ≥ 75 | 25 to 50 | 50 to 75 | – | – | – | – | > 90 | > 90 | > 90 | ≤ 0.1 | > 90
4 | Cn1ncc(-c2nc(N[C@H]3CC[C@H](NCCOCCOCCNCc4ccc(OCc5scc6c5CN([C@H]5CCC(=O)NC5=O)C6=O)cc4)CC3)ncc2Cl)c1CC1CC1 [Compound 67, (S)-3-(1-((4-(((2-(2-(2-(((1r,4r)-4-((5-chloro-4-(5-(cyclopropylmethyl)-1-methyl-1H-pyrazol-4-yl)pyrimidin-2-yl)amino)cyclohexyl)amino)ethoxy)ethoxy)ethyl)amino)methyl)phenoxy)methyl)-4-oxo-4H-thieno[3,4-c]pyrrol-5(6H)-yl)piperidine-2,6-dione] | 25 to 50 | 25 to 50 | 50 to 75 | – | – | – | – | > 90 | > 90 | > 90 | 0.5 to 1 | > 90
